Source: patent US20230011269A1, “PHARMACEUTICAL COMPOSITION COMPRISING A POTENT INHIBITOR OF URAT1” (Ardea Biosciences, Inc., priority 2015, published 2023)
Values after ≈ are worked out from the molar mass of the structure shown. Read-outs that look alike come from different tables or passages of the source.

Legend:
[1] = tested on: serum urate; test: Phase 1 single dose study, immediate release formulations: serum urate lowering; format: in vivo, human; conditions: mean maximum observed percentage change from pre-dose in serum urate concentrations (Emax)
From the text: (§1) A phase 1, randomized, double-blind, placebo-controlled study in healthy adult male volunteers evaluated single rising doses and the preliminary food effect for 2-((3-(4-cyanonaphthalen-1-yl)pyridine-4-yl)thio)-2-methylpropanoic acid at 6 dose groups with 8 subjects per group. […] Subjects in each dose group were randomized to receive a single dose of either 2-((3-(4-cyanonaphthalen-1-yl)pyridine-4-yl)thio)-2-methylpropanoic acid (6 subjects) or placebo (2 subjects). 2-((3-(4-cyanonaphthalen-1-yl)pyridine-4-yl)thio)-2-methylpropanoic acid was supplied as 1 mg oral solution, 2 mg oral solution, 5 mg tablets, or 20 mg tablets (depending on dose level).
(§2) The mean plasma concentration-time profiles for the IR formulations under fed and fasted conditions are depicted in FIGS. 3a and 3b. Absorption of 2-((3-(4-cyanonaphthalen-1-yl)pyridine-4-yl)thio)-2-methylpropanoic acid following a single oral dose under fasted conditions was rapid. […] When 2-((3-(4-cyanonaphthalen-1-yl)pyridine-4-yl)thio)-2-methylpropanoic acid was administered with food, slightly slower absorption and lower exposure were observed. […] Important pharmacodynamic parameters related to the serum Uric Acid lowering effects are shown in the following two tables: […]

[2] = Phase 1 single dose study, immediate release formulations: plasma pharmacokinetics; format: in vivo, human; conditions: for AUC(0-t): read-out: AUC0-24
From the text: as §1
Segment A evaluated single rising doses of 2 mg, 5 mg, 20 mg and 40 mg and the preliminary food effect of 2-((3-(4-cyanonaphthalen-1-yl)pyridine-4-yl)thio)-2-methylpropanoic acid at the 5 mg and 20 mg doses followed by multiple ascending doses of 1 mg, 5 mg and 10 mg qd in Segment B.
The oral solution was prepared by the clinical pharmacist in bulk within 24 hours of administration. The oral solution of 2-((3-(4-cyanonaphthalen-1-yl)pyridine-4-yl)thio)-2-methylpropanoic acid (0.033 mg/mL concentration) was prepared as a mixture of the appropriate amount of 2-((3-(4-cyanonaphthalen-1-yl)pyridine-4-yl)thio)-2-methylpropanoic acid powder, anhydrous dibasic sodium phosphate, and sterile water for irrigation; placebo oral solution was prepared as a vehicle using anhydrous dibasic sodium phosphate and sterile water for irrigation. […] Plasma samples were collected at the following time-points in relation to dosing on Day 1: pre-dose (within 30 minutes before dosing) and at 0.25, 0.5, 0.75, 1, 1.5, 2, 2.5, 3, 4, 5, 6, 8, 10, 12, 24, 30, 36, 48, 54, 60, and 72 hours post-dose, and were analysed for 2-((3-(4-cyanonaphthalen-1-yl)pyridine-4-yl)thio)-2-methylpropanoic acid content.

[3] = aqueous equilibrium solubility at 37° C.; format: physicochemical; conditions: aqueous media, thermodynamic from solid
From the text: The solubility of 2-((3-(4-cyanonaphthalen-1-yl)pyridine-4-yl)thio)-2-methylpropanoic acid in aqueous media is highly dependent upon pH.

[4] = tested on: urine urate excretion; test: Phase 1 single dose study, immediate release formulations: urine urate excretion; format: in vivo, human; conditions: 5 mg/Fasted
From the text: as §1, §2

[5] = 2 mg single dose, Fasted, oral solution, Group 5, N = 6, Geomean
[6] = 5 mg single dose, Fasted, 1 × 5 mg tablet, Group 4, N = 6, Geomean
[7] = 5 mg single dose, Fed, 1 × 5 mg tablet, Group 6, N = 6, Geomean
[8] = 20 mg single dose, Fasted, 1 × 20 mg tablet, Group 1, N = 6, Geomean
[9] = 20 mg single dose, Fed, 1 × 20 mg tablet, Group 3, N = 6, Geomean
[10] = 40 mg single dose, Fasted, 2 × 20 mg tablet, Group 2, N = 6, Geomean
[11] = mg of urate per urine collection period

SMILES: CC(C)(Sc1ccncc1-c1ccc(C#N)c2ccccc12)C(=O)O [2-((3-(4-cyanonaphthalen-1-yl)pyridine-4-yl)thio)-2-methylpropanoic acid]
- Mean % change in sUA from predose ([1]; 2 mg/Fasted): 8%
- Mean % change in sUA from predose ([1]; 5 mg/Fasted): 15%
- Mean % change in sUA from predose ([1]; 20 mg/Fasted): 43%
- Mean % change in sUA from predose ([1]; 40 mg/Fasted): 58%
- AUC∞ [2, 5]: 45 ng·h/mL
- Cmax [2, 5]: 36.4 ng/mL
- t1/2 [2, 5]: 12.1 h
- Tmax ([2]; 2 mg single dose, Fasted, oral solution, Group 5, N = 6, median): 0.500 h
- AUC∞ [2, 6]: 121 ng·h/mL
- Cmax [2, 6]: 72.9 ng/mL
- t1/2 [2, 6]: 14.2 h
- AUC∞ [2, 7]: 92.8 ng·h/mL
- Cmax [2, 7]: 45.7 ng/mL
- t1/2 [2, 7]: 12.7 h
- Tmax ([2]; 5 mg single dose, Fed, 1 × 5 mg tablet, Group 6, N = 6, median): 1.25 h
- Cmax ([2]; 5 mg/Fasted, immediate release, read-out: Cmax): 72.9 ng/mL
- Cmax [2, 8]: 384 ng/mL
- t1/2 [2, 8]: 10.9 h
- Tmax ([2]; 20 mg single dose, Fasted, 1 × 20 mg tablet, Group 1, N = 6, median): 0.500 h
- AUC∞ [2, 9]: 415 ng·h/mL
- Cmax [2, 9]: 181 ng/mL
- t1/2 [2, 9]: 13.8 h
- Tmax ([2]; 20 mg single dose, Fed, 1 × 20 mg tablet, Group 3, N = 6, median): 1.25 h
- AUC∞ [2, 10]: 1270 ng·h/mL
- t1/2 [2, 10]: 9.51 h
- Tmax ([2]; 40 mg single dose, Fasted, 2 × 20 mg tablet, Group 2, N = 6, median): 0.750 h
- AUC(0-t) ([2]; male, human, plasma, oral, 2 mg, 2 mg/Fasted, immediate release): 38.8 ng·h/mL
- AUC(0-t) ([2]; male, human, plasma, oral, 5 mg, 5 mg single dose, Fasted, 1 × 5 mg tablet, Group 4, N = 6, Geomean): 102 ng·h/mL
- Tmax ([2]; male, human, plasma, oral, 5 mg, 5 mg single dose, Fasted, 1 × 5 mg tablet, Group 4, N = 6, median, read-out: Tmax): 0.625 h
- AUC(0-t) ([2]; male, human, plasma, oral, 5 mg, 5 mg single dose, Fed, 1 × 5 mg tablet, Group 6, N = 6, Geomean): 75.2 ng·h/mL
- AUC(0-t) ([2]; male, human, plasma, oral, 5 mg, 5 mg/Fasted, immediate release): 102 ng·h/mL
- AUC(0-t) ([2]; male, human, plasma, oral, 20 mg, 20 mg single dose, Fasted, 1 × 20 mg tablet, Group 1, N = 6, Geomean): 463 ng·h/mL
- AUC(0-t) ([2]; male, human, plasma, oral, 20 mg, 20 mg single dose, Fed, 1 × 20 mg tablet, Group 3, N = 6, Geomean): 350 ng·h/mL
- AUC(0-t) ([2]; male, human, plasma, oral, 20 mg, 20 mg/Fasted, immediate release): 463 ng·h/mL
- AUC(0-t) ([2]; male, human, plasma, oral, 40 mg, 40 mg single dose, Fasted, 2 × 20 mg tablet, Group 2, N = 6, Geomean): 1070 ng·h/mL
- AUC(0-t) ([2]; male, human, plasma, oral, 40 mg, 40 mg/Fasted, immediate release): 1070 ng·h/mL
- AUC(0-inf) ([2]; male, human, plasma, oral, 20 mg single dose, Fasted, 1 × 20 mg tablet, Group 1, N = 6, Geomean): 540 ng·h/mL
- Cmax ([2]; male, human, plasma, oral, 40 mg single dose, Fasted, 2 × 20 mg tablet, Group 2, N = 6, Geomean, read-out: Cmax): 760 ng/mL
- AUC(0-t) ([2]; male, human, plasma, po, 2 mg, 2 mg single dose, Fasted, oral solution, Group 5, N = 6, Geomean): 38.8 ng·h/mL
- Tmax ([2]; male, human, plasma, po, 5 mg, immediate release tablet, oral, fasted, human, read-out: Tmax (called mean in b5, median)): 0.6 h
- Tmax ([2]; male, human, plasma, po, 5 mg, immediate release tablet, oral, fasted, human, read-out: time at which the peak plasma concentration is observed (Tmax), range): 0.25 to 1.5 h
- Cmax ([2]; male, human, plasma, po, 5 mg, read-out: geometric mean maximum plasma concentration (Cmax)): ~73 ng/mL
- solubility at 24 h ([3]; pH 1, simulated gastric fluid, 0.1N HCl, pH initial 1.1, pH (24 h) 1.0, read-out: Solubility after 24 hours): 1480 µg/mL (≈ 4250 µM)
- solubility at 48 h ([3]; pH 1.1, simulated gastric fluid, 0.1N HCl, pH initial 1.1, pH (48 h) 1.1, read-out: Solubility after 48 hours): 1240 µg/mL (≈ 3550 µM)
- solubility at 24 h ([3]; pH 1.6, simulated gastric fluid, SGF pH 1.6, pH initial 1.6, pH (24 h) 1.4, read-out: Solubility after 24 hours): 415 µg/mL (≈ 1190 µM)
- solubility at 48 h ([3]; pH 1.6, simulated gastric fluid, SGF pH 1.6, pH initial 1.6, pH (48 h) 1.4, read-out: Solubility after 48 hours): 398 µg/mL (≈ 1140 µM)
- solubility at 24 h ([3]; pH 3, aqueous buffer, Citrate pH 3.0, pH initial 3.0, pH (24 h) 2.8, read-out: Solubility after 24 hours): 66 µg/mL (≈ 189 µM)
- solubility at 48 h ([3]; pH 3, aqueous buffer, Citrate pH 3.0, pH initial 3.0, pH (48 h) 2.8, read-out: Solubility after 48 hours): 65 µg/mL (≈ 187 µM)
- solubility at 24 h ([3]; pH 4, aqueous buffer, Succinate pH 4.0, pH initial 4.0, pH (24 h) 3.9, read-out: Solubility after 24 hours): 56 µg/mL (≈ 161 µM)
- solubility at 48 h ([3]; pH 4, aqueous buffer, Succinate pH 4.0, pH initial 4.0, pH (48 h) 3.9, read-out: Solubility after 48 hours): 55 µg/mL (≈ 158 µM)
- solubility at 24 h ([3]; pH 4.5, aqueous buffer, Acetate pH 4.5, pH initial 4.6, pH (24 h) 4.5, read-out: Solubility after 24 hours): 70 µg/mL (≈ 201 µM)
- solubility at 48 h ([3]; pH 4.5, aqueous buffer, Acetate pH 4.5, pH initial 4.6, pH (48 h) 4.5, read-out: Solubility after 48 hours): 65 µg/mL (≈ 187 µM)
- solubility at 24 h ([3]; pH 5, aqueous buffer, Citrate pH 5.0, pH initial 5.0, pH (24 h) 5.0, read-out: Solubility after 24 hours): 97 µg/mL (≈ 278 µM)
- solubility at 48 h ([3]; pH 5, aqueous buffer, Citrate pH 5.0, pH initial 5.0, pH (48 h) 4.9, read-out: Solubility after 48 hours): 95 µg/mL (≈ 273 µM)
- solubility at 48 h ([3]; pH 5.3, water, Water, pH initial 6.3, pH (48 h) 5.3, read-out: Solubility after 48 hours): 132 µg/mL (≈ 379 µM)
- solubility at 24 h ([3]; pH 5.4, water, Water, pH initial 6.3, pH (24 h) 5.4, read-out: Solubility after 24 hours): 148 µg/mL (≈ 425 µM)
- solubility at 24 h ([3]; pH 6, aqueous buffer, Histidine pH 6.0, pH initial 6.1, pH (24 h) 5.8, read-out: Solubility after 24 hours): 532 µg/mL (≈ 1530 µM)
- solubility at 48 h ([3]; pH 6, aqueous buffer, Histidine pH 6.0, pH initial 6.1, pH (48 h) 5.8, read-out: Solubility after 48 hours): 485 µg/mL (≈ 1390 µM)
- solubility at 24 h ([3]; pH 6.8, aqueous buffer, Potassium phosphate pH 6.8, pH initial 6.9, pH (24 h) 6.6, read-out: Solubility after 24 hours): 2370 µg/mL (≈ 6800 µM)
- solubility at 48 h ([3]; pH 6.8, aqueous buffer, Potassium phosphate pH 6.8, pH initial 6.9, pH (48 h) 6.5, read-out: Solubility after 48 hours): 2710 µg/mL (≈ 7770 µM)
- solubility at 24 h ([3]; pH 6.9, aqueous buffer, 0.03N NaOH, pH initial 12.3, pH (24 h) 6.9, read-out: Solubility after 24 hours): 10600 µg/mL (≈ 30300 µM)
- solubility at 48 h ([3]; pH 6.9, aqueous buffer, 0.03N NaOH, pH initial 12.3, pH (48 h) 6.9, read-out: Solubility after 48 hours): 10300 µg/mL (≈ 29400 µM)
- solubility at 48 h ([3]; pH 7, aqueous buffer, 0.1N NaOH, pH initial 12.8, pH (48 h) 7.0, read-out: Solubility after 48 hours): 33500 µg/mL (≈ 96100 µM)
- solubility at 24 h ([3]; pH 7, aqueous buffer, Sodium phosphate pH 7.0, pH initial 7.0, pH (24 h) 6.7, read-out: Solubility after 24 hours): 3520 µg/mL (≈ 10100 µM)
- solubility at 48 h ([3]; pH 7, aqueous buffer, Sodium phosphate pH 7.0, pH initial 7.0, pH (48 h) 6.6, read-out: Solubility after 48 hours): 3620 µg/mL (≈ 10400 µM)
- solubility at 24 h ([3]; pH 7.1, aqueous buffer, 0.1N NaOH, pH initial 12.8, pH (24 h) 7.1, read-out: Solubility after 24 hours): 31900 µg/mL (≈ 91500 µM)
- solubility at 48 h ([3]; pH 7.4, aqueous buffer, 0.3N NaOH, pH initial 13.2, pH (48 h) 7.4, read-out: Solubility after 48 hours): 93600 µg/mL (≈ 269000 µM)
- solubility at 24 h ([3]; pH 11.7, aqueous buffer, 0.3N NaOH, pH initial 13.2, pH (24 h) 11.7, read-out: Solubility after 24 hours): 87800 µg/mL (≈ 252000 µM)
- Urine Urate Excretion 0-6 hrs/0-24 hrs [4]: 0.468
- Urine Urate Excretion UUE 0-6 hrs [4, 11]: 509 mg
- Urine Urate Excretion UUE 6-12 hrs [4, 11]: 231 mg
- Urine Urate Excretion UUE 12-24 hrs [4, 11]: 347 mg
